In patent US20100075957A1, “AMINODIHYDROTHIAZINE DERIVATIVES SUBSTITUTED WITH A CYCLIC GROUP” (SHIONOGI & CO., LTD., priority 2007, published 2010) one finds IC50 data, which are given here for 72 molecules.

For this assay, the target named is T1, Recombinant human BACE-1 (Homo sapiens, UniProt P56817).
T1 construct: purchased R&D Systems
As to the kind of experiment: Assay of β-secretase-inhibiting activity.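 Also: substrate is a peptide carrying biotin and europium cryptate, after the enzyme reaction, Streptavidin-XL665 is added and incubated 1 h at 30 °C before fluorescence reading.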 Format: biochemical. Particulars: Recombinant human BACE-1 7.4 nM, substrate peptide 18 nM, pH 5.0, 30° C., 3 hours.

The mark [1] stands for this setting: time-resolved fluorescence ratio 665/620, read-out: IC50 values (50% inhibitory concentration against the enzymatic activity).

Like-named read-outs stand apart in the source and are kept apart here.

T1 sequence (P56817 46-501): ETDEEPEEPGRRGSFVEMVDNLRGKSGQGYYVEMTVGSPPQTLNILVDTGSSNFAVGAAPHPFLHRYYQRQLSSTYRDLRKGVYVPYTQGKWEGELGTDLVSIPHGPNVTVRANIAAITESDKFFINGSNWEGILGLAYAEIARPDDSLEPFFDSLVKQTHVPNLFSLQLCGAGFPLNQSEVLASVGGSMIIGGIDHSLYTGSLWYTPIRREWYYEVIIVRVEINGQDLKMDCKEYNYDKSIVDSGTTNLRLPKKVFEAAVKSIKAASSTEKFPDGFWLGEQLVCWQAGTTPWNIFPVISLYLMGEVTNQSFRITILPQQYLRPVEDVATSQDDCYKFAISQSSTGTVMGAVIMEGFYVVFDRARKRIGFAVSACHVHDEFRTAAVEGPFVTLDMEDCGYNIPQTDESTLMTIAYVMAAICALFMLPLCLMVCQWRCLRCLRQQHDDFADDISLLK

For the molecule `Cc1cnc(C(=O)Nc2ccnc([C@]3(C)CCSC(N)=N3)c2)cn1` [Compound 551], the IC50 (Table 140, read-out: IC50) is 0.02 µM.
For `Cc1cc(SCC(=O)Nc2ccc(F)c([C@]3(C)CCSC(N)=N3)c2)nc(N)n1` [Compound 151], the IC50 (Table 139, read-out: IC50) stood at 6.77 µM.
For the molecule `Cc1cc(C(=O)Nc2ccc(F)c([C@]3(C)CCSC(N)=N3)c2)on1` [Compound 19], the IC50 under setting [1] was not above 1 µM.
Take `C[C@@]1(c2cc(NC(=O)c3cc4ccccc4[nH]3)ccc2F)CCSC(N)=N1` [Compound 536]: the IC50 under setting [1] was not above 1 µM.
As for `C[C@@]1(c2cc(NC(=O)c3ncc(O)cc3F)ccc2F)CCSC(N)=N1` [Compound 491], under “Table 140, read-out: IC50”, the IC50 worked out at 0.09 µM.
As for `COc1ccc(NC(=O)c2cnc(C)cn2)cc1[C@]1(C)CCSC(N)=N1` [Compound 32], the IC50 under setting [1] was not above 1 µM.
Turning to `C[C@@]1(c2cc(NC(=O)c3ncccc3F)ccc2F)CCSC(N)=N1` [Compound 510], the IC50 under setting [1] was not above 1 µM.
As to `COc1nccnc1C(=O)Nc1ccc(F)c([C@]2(C)CCSC(N)=N2)c1` [Compound 85], the IC50 under setting [1] is not above 1 µM.
On to `Cc1cc(C(=O)Nc2cccc([C@]3(C)CCSC(N)=N3)c2)[nH]n1` [Compound 5], for which, under setting [1], the IC50 was not above 1 µM.
Consider `C[C@@]1(c2cncc(NC(=O)c3ccc(Br)s3)c2)CCSC(N)=N1` [Compound 514], for which the IC50 (Table 140, read-out: IC50) was found to be 0.24 µM.
Take `C[C@@]1(c2cc(NC(=O)c3nccnc3Cl)ccc2F)CCSC(N)=N1` [Compound 84]: the IC50 under setting [1] is not above 1 µM.
The same measure, in the same setting: the value for `C[C@]1(c2cc(NC(=O)c3ncc(Cl)cc3Cl)ccc2F)N=C(N)SCC1=O` [Compound 687] was not above 1 µM; that for `Cc1noc(C)c1C(=O)Nc1ccc(F)c([C@]2(C)CCSC(N)=N2)c1` [Compound 500] was not above 1 µM.
As for `CCc1cc(C(=O)Nc2ccc(F)c([C@]3(C)CCSC(N)=N3)c2)on1` [Compound 495], under setting [1], the IC50 is not above 1 µM.
With `C[C@@]1(c2cc(NC(=O)c3cn4ccccc4n3)ccc2F)CCSC(N)=N1` [Compound 502], the IC50 (Table 140, read-out: IC50) came out at 0.04 µM.
With `Cc1cc(C(=O)Nc2ccc(F)c([C@]3(C)CCSC(N)=N3)c2)n(C)n1` [Compound 463], under setting [1], the IC50 is not above 1 µM.
For the molecule `CC(C)=NOc1cnc(C(=O)Nc2ccc(F)c([C@]3(C)CCSC(N)=N3)c2)cn1` [Compound 125], the IC50 under setting [1] was not above 1 µM.
Regarding `C=CCCOc1cnc(C(=O)Nc2cccc([C@]3(C)CCSC(N)=N3)c2)cn1` [Compound 86], the IC50 (Table 139, read-out: IC50) stood at 0.19 µM.
Take `Cc1cnc(C(=O)Nc2cc([C@]3(C)CCSC(N)=N3)ccn2)cn1` [Compound 593]: the IC50 (Table 140, read-out: IC50) stood at 0.28 µM.
As to `C[C@@]1(c2cc(NC(=O)c3cnc(N=[N+]=[N-])cn3)ccc2F)CCSC(N)=N1` [Compound 79], the IC50 under setting [1] was not above 1 µM.
Consider `COc1nc(C(=O)Nc2ccc(F)c([C@]3(C)CCSC(N)=N3)c2)co1` [Compound 667], for which, for the setting “Table 141, read-out: IC50”, the IC50 was 0.02 µM.
In the case of `COc1nc(Nc2ccc(F)c([C@]3(C)CCSC(N)=N3)c2)nc(OC)n1` [Compound 126], where the note is “Table 139, read-out: IC50”, the IC50 is 2.14 µM.
As to `COc1cc(C(=O)Nc2ccc(F)c([C@]3(C)CCSC(N)=N3)c2)on1` [Compound 22], under setting [1], the IC50 is not above 1 µM.
Still for that read-out and setting: the value for `C#CCOc1cnc(C(=O)Nc2ccc(F)c([C@]3(C)CCSC(N)=N3)c2)cn1` [Compound 133] was not above 1 µM.
The same measure, in the same setting: the value for `C[C@@]1(c2cc(NC(=O)c3ncccc3F)ccc2F)CCSC(N)=N1` [Compound 511] was not above 1 µM.
On to `CC#CC(=O)Nc1cccc([C@]2(C)CCSC(N)=N2)c1` [Compound 65], for which, for the setting “Table 139, read-out: IC50”, the IC50 was determined as 0.72 µM.
As for `COc1cnc(C(=O)Nc2ccc(F)c([C@@]3(C)N=C(N)SC[C@H]3OCc3ccccc3)c2)cn1` [Compound 684], under setting [1], the IC50 was not above 1 µM.
The same measure, in the same setting: with `C[C@@]1(c2cc(NC(=O)c3cn4cc(C#N)nc4cn3)ccn2)CCSC(N)=N1` [Compound 699] the figure was not above 1 µM; with `C[C@@]1(c2cc(NC(=O)c3ncccc3F)ccn2)CCSC(N)=N1` [Compound 613], not above 1 µM.
For `COc1cnc(C(=O)Nc2ccnc([C@]3(C)CCSC(N)=N3)c2)c(C)c1` [Compound 679], the IC50 under setting [1] is not above 1 µM.
On to `Cc1nc(-c2ccc(C(=O)Nc3ccc(F)c([C@]4(C)CCSC(N)=N4)c3)cc2)no1` [Compound 531], for which, under setting [1], the IC50 is not above 1 µM.
Regarding `COCCOc1cnc(C(=O)Nc2cccc([C@]3(C)CCSC(N)=N3)n2)cn1` [Compound 592], the IC50 under setting [1] is not above 1 µM.
Regarding `CSc1cnc(C(=O)Nc2ccc(F)c([C@]3(C)CCSC(N)=N3)c2)cn1` [Compound 77], the IC50 under setting [1] was not above 1 µM.
Regarding `C[C@@]1(c2cccc(NC(=O)c3ccc(OCc4ccc(F)cc4)cn3)c2)CCSC(N)=N1` [Compound 111], for the setting “Table 139, read-out: IC50”, the IC50 was 0.18 µM.
Turning to `Cc1ccc(C(=O)Nc2ccc(F)c([C@]3(C)CCSC(N)=N3)c2)s1` [Compound 532], under setting [1], the IC50 was not above 1 µM.
As to `Cn1nc(Cl)cc1C(=O)Nc1cncc([C@]2(C)CCSC(N)=N2)c1` [Compound 478], for the setting “Table 140, read-out: IC50”, the IC50 turned out to be 0.08 µM.
As for `Cc1nc(C(=O)Nc2ccc(F)c([C@]3(C)CCSC(N)=N3)c2)c(C(F)(F)F)o1` [Compound 471], under setting [1], the IC50 was not above 1 µM.
Turning to `C[C@@]1(c2cc(NC(=O)c3ncc(OCC(F)(F)F)nc3N)ccc2F)CCSC(N)=N1` [Compound 165], the IC50 under setting [1] was not above 1 µM.
On the same count and under the same terms, the value for `COc1cnc(C(=O)Nc2ccnc([C@]3(C)CCSC(N)=N3)c2)cn1` [Compound 548] was not above 1 µM; that for `COCCOCCOc1cnc(C(=O)Nc2cccc([C@]3(C)CCSC(N)=N3)c2)cn1` [Compound 90] was not above 1 µM.
As for `C[C@@]1(c2cc(NC(=O)c3ccc(OCC#CCN)cn3)ccc2F)CCSC(N)=N1` [Compound 566], the IC50 (Table 140, read-out: IC50) amounted to 0.18 µM.
On to `C[C@@]1(c2cc(NC(=O)c3ccc(OCc4ccco4)cn3)ccc2F)CCSC(N)=N1` [Compound 112], for which the IC50 under setting [1] was not above 1 µM.
As to `CC#CCOc1cnc(C(=O)Nc2cc([C@]3(C)CCSC(N)=N3)c3oc(C)cc3c2)cn1` [Compound 469], the IC50 under setting [1] is not above 1 µM.
As for `C[C@@]1(c2cncc(NC(=O)c3cnc(Cl)cn3)c2)CCSC(N)=N1` [Compound 597], the IC50 (Table 140, read-out: IC50) was determined as 0.07 µM.
For `C[C@@]1(c2cc(NC(=O)c3ccc(Cl)nn3)ccc2F)CCSC(N)=N1` [Compound 490], under setting [1], the IC50 is not above 1 µM.
Regarding `C[C@@]1(c2cncc(NC(=O)c3cnc(OCCF)cn3)c2)CCSC(N)=N1` [Compound 557], the IC50 under setting [1] was not above 1 µM.
In the case of `COc1cnc(C(=O)Nc2ccc(F)c([C@@]3(C)N=C(N)SCC3(F)F)c2)cn1` [Compound 673], the IC50 under setting [1] was not above 1 µM.
As to `C[C@@]1(c2cc(NC(=O)c3cc4cc(C(F)(F)F)ccc4s3)ccc2F)CCSC(N)=N1` [Compound 546], under setting [1], the IC50 is not above 1 µM.
Same read-out and setting: with `C[C@@]1(c2cc(NC(=O)c3ncc(C(F)(F)F)cc3Cl)ccn2)CCSC(N)=N1` [Compound 678] the figure was not above 1 µM.
Consider `Cc1nc(C(=O)Nc2cncc([C@]3(C)CCSC(N)=N3)c2)c(C)o1` [Compound 461], for which the IC50 (Table 140, read-out: IC50) stood at 0.03 µM.
For the molecule `C[C@@]1(c2cc(NC(=O)c3cc4ccccc4o3)ccc2F)CCSC(N)=N1` [Compound 540], the IC50 under setting [1] was not above 1 µM.
As to `COCCOc1cnc(C(=O)Nc2ccc(F)c([C@]3(C)CCSC(N)=N3)c2)cn1` [Compound 75], under setting [1], the IC50 was not above 1 µM.
With `COc1cscc1C(=O)Nc1ccc(F)c([C@]2(C)CCSC(N)=N2)c1` [Compound 524], the IC50 under setting [1] is not above 1 µM.
For `Cc1cnc(C(=O)Nc2ccc(F)c([C@@]3(C)N=C(N)SCC34CC4)c2)cn1` [Compound 674], under “Table 141, read-out: IC50”, the IC50 came to 0.01 µM.
Consider `Cc1cc(C(=O)Nc2cncc([C@]3(C)CCSC(N)=N3)c2)on1` [Compound 474], for which, under setting [1], the IC50 was not above 1 µM.
For the molecule `Cc1nc(C(=O)Nc2ccc(F)c([C@@]3(C)N=C(N)SCC3(F)F)c2)co1` [Compound 664], where the note is “Table 141, read-out: IC50”, the IC50 came out at 0.02 µM.
In the case of `Cc1ccsc1C(=O)Nc1cncc([C@]2(C)CCSC(N)=N2)c1` [Compound 487], the IC50 under setting [1] is not above 1 µM.
Same read-out and setting: the value for `C[C@@]1(c2cccc(NC(=O)c3cnc(OCC(F)(F)F)cn3)c2)CCSC(N)=N1` [Compound 82] was not above 1 µM.
The same measure, in the same setting: the value for `C[C@@]1(c2cc(NC(=O)c3cnc(Cl)cn3)ccc2F)CCSC(N)=N1` [Compound 78] was not above 1 µM; that for `C/C=C/COc1cnc(C(=O)Nc2cccc([C@]3(C)CCSC(N)=N3)c2)cn1` [Compound 83] was not above 1 µM; that for `Cc1csc(C(=O)Nc2ccc(F)c([C@]3(C)CCSC(N)=N3)c2)c1` [Compound 533] was not above 1 µM.
Still for that read-out and setting: the value for `C[C@@]1(c2cncc(NC(=O)c3cc(Br)cs3)c2)CCSC(N)=N1` [Compound 516] was not above 1 µM; that for `COc1cnc(C(=O)Nc2cncc([C@]3(C)CCSC(N)=N3)c2)c(C)c1` [Compound 564] was not above 1 µM.
Consider `C[C@@]1(c2cccc(NC(=O)c3ccc(O)cn3)c2)CCSC(N)=N1` [Compound 110], for which the IC50 under setting [1] was not above 1 µM.
In the case of `C[C@@]1(c2cncc(NC(=O)c3ncc(Cl)cc3Cl)c2)CCSC(N)=N1` [Compound 572], the IC50 under setting [1] was not above 1 µM.
As to `C[C@@]1(c2cccc(NC(=O)c3cnc(C(N)=O)cn3)c2)CCSC(N)=N1` [Compound 68], the IC50 under setting [1] was not above 1 µM.
On to `Cc1cnn(-c2cnc(C(=O)Nc3ccc(F)c([C@]4(C)CCSC(N)=N4)c3)cn2)c1` [Compound 577], for which, where the note is “Table 140, read-out: IC50”, the IC50 was found to be 0.03 µM.
As to `C[C@@]1(c2cc(NC(=O)c3cnc4ccccc4n3)ccc2F)CCSC(N)=N1` [Compound 666], under setting [1], the IC50 is not above 1 µM.
On to `Cc1noc(C)c1-c1cnc(C(=O)Nc2ccc(F)c([C@]3(C)CCSC(N)=N3)c2)cn1` [Compound 523], for which the IC50 under setting [1] is not above 1 µM.
`C#CCOc1cnc(C(=O)Nc2cccc([C@]3(C)CC(C)(C)SC(N)=N3)c2)cn1` [Compound 693]: the IC50 under setting [1] was not above 1 µM.
Regarding `CC1(C)C[C@@](C)(c2cc(NC(=O)c3cnc(OCCF)cn3)ccc2F)N=C(N)S1` [Compound 605], the IC50 under setting [1] was not above 1 µM.
On the same count and under the same terms, the value for `Cn1nc(C(F)(F)F)cc1C(=O)Nc1cccc([C@]2(C)CCSC(N)=N2)c1` [Compound 4] was not above 1 µM.
